Data as given in ChEMBL document CHEMBL5360641, “4'-Ethynyl-2'-deoxy-2'-β-fluoro-2-fluoroadenosine: A Highly Potent and Orally Available Clinical Candidate for the Treatment of HIV-1 Infection” (J Med Chem, 2023).

Legend:
[1] = Cytotoxicity against HEK293T cells assessed as reduction in cell viability by MTT assay; type: toxicity, cell-based, HEK-293T; details: human
[2] = Selectivity index, ratio of CC50 for cytotoxicity against HEK293T cells assessed as reduction in cell viability by MTT assay to EC50 for antiviral activity against HIV1 VSV-G pseudotyped virus infected in human HEK293T cells assessed as inhibition of viral growth; type: toxicity, cell-based; details: read-out: Ratio CC50/EC50
[3] = test system: Human immunodeficiency virus 1; assay: Antiviral activity against HIV1 VSV-G pseudotyped virus infected in human HEK293T cells assessed as inhibition of viral growth preincubated for 3 hrs followed by washout and further incubated with compound for 72 hrs by luciferase assay; type: functional, organism-based; details: Human immunodeficiency virus 1, HEK-293T

Compound	CC50 [1] [nM]	selectivity ratio [2]	EC50 [3] [nM]
[N-]=[N+]=N[C@]1(CO)O[C@@H](n2cnc3c(N)nc(F)nc32)[C@@H](F)[C@@H]1O	> 100000	> 50300	1.99
C#C[C@]1(CO)O[C@@H](n2cnc3c(N)ncnc32)[C@@H](F)[C@@H]1O	56500	24600	2.3
